Measurements taken from patent US20260262643A1, “HERBICIDAL BENZOXAZINES” (FMC CORPORATION, priority 2022, published 2026).

Legend:
[1] = system: blackgrass; experiment: Test A preemergence; format: in vivo, Alopecurus myosuroides
Procedure, shortened: (§1)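 Loam/sand soil; pre-em directed soil spray at planting, post-em spray at 1–2 leaf (2–10 cm). Compound in non-phytotoxic solvent + surfactant. Greenhouse 10 d; visual injury vs untreated, 0 = no effect, 100 = complete control.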

[2] = system: oat, wild; experiment: Test A preemergence; format: in vivo, Avena fatua
Procedure, shortened: as §1

[3] = system: ryegrass, Italian; experiment: Test A preemergence; format: in vivo, Lolium multiflorum
Procedure, shortened: as §1

[4] = system: goosegrass; experiment: Test A preemergence; format: in vivo, Eleusine indica
Procedure, shortened: as §1

[5] = system: galium; experiment: Test A postemergence; format: in vivo, Galium aparine; settings: postemergence, 10 days
Procedure, shortened: as §1

[6] = system: horseweed; experiment: Test A postemergence; format: in vivo, Erigeron canadensis; settings: postemergence, 10 days
Procedure, shortened: as §1

[7] = system: soybean; experiment: Test A preemergence; format: in vivo, Glycine max
Procedure, shortened: as §1

[8] = system: blackgrass; experiment: Test A postemergence; format: in vivo, Alopecurus myosuroides; settings: postemergence, 10 days
Procedure, shortened: as §1

[9] = system: kochia; experiment: Test A postemergence; format: in vivo, Bassia scoparia; settings: postemergence, 10 days
Procedure, shortened: as §1

[10] = system: sedge, umbrella; experiment: Test B flooded paddy test; format: in vivo, Cyperus difformis; settings: 250 g ai/ha, Flood, 13 days, 0 to 100 scale (0 no effect, 100 complete control)
Procedure, shortened: (§2)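 Compound is introduced into paddy water covering soil by 3 cm, treating plants that have reached two leaves. Pots are kept flooded at that depth under greenhouse conditions. Assessment at 13 days gives a 0–100 visual control score.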

[11] = system: ragweed; experiment: Test A postemergence; format: in vivo, Ambrosia artemisiifolia; settings: postemergence, 10 days
Procedure, shortened: as §1

[12] = system: ducksalad; experiment: Test B flooded paddy test; format: in vivo, Heteranthera limosa; settings: 250 g ai/ha, Flood, 13 days, 0 to 100 scale (0 no effect, 100 complete control)
Procedure, shortened: as §2

[13] = system: kochia; experiment: Test A preemergence; format: in vivo, Bassia scoparia
Procedure, shortened: as §1

[14] = system: pigweed, palmer; experiment: Test A preemergence; format: in vivo, Amaranthus palmeri
Procedure, shortened: as §1

[15] = system: corn; experiment: Test A preemergence; format: in vivo, Zea mays
Procedure, shortened: as §1

[16] = system: ryegrass, Italian; experiment: Test A postemergence; format: in vivo, Lolium multiflorum; settings: postemergence, 10 days
Procedure, shortened: as §1

[17] = system: wheat; experiment: Test A preemergence; format: in vivo, Triticum aestivum
Procedure, shortened: as §1

[18] = system: corn; experiment: Test A postemergence; format: in vivo, Zea mays; settings: postemergence, 10 days
Procedure, shortened: as §1

[19] = system: goosegrass; experiment: Test A postemergence; format: in vivo, Eleusine indica; settings: postemergence, 10 days
Procedure, shortened: as §1

[20] = system: rice; experiment: Test B flooded paddy test; format: in vivo, Oryza sativa; settings: 250 g ai/ha, Flood, 13 days, 0 to 100 scale (0 no effect, 100 complete control)
Procedure, shortened: as §2

[21] = system: soybean; experiment: Test A postemergence; format: in vivo, Glycine max; settings: postemergence, 10 days
Procedure, shortened: as §1

[22] = system: oat, wild; experiment: Test A postemergence; format: in vivo, Avena fatua; settings: postemergence, 10 days
Procedure, shortened: as §1

[23] = system: wheat; experiment: Test A postemergence; format: in vivo, Triticum aestivum; settings: postemergence, 10 days
Procedure, shortened: as §1

[24] = system: foxtail, giant; experiment: Test A preemergence; format: in vivo, Setaria faberi
Procedure, shortened: as §1

[25] = system: barnyardgrass; experiment: Test B flooded paddy test; format: in vivo, Echinochloa crus-galli; settings: 250 g ai/ha, Flood, 13 days, 0 to 100 scale (0 no effect, 100 complete control)
Procedure, shortened: as §2

[26] = system: pigweed, palmer; experiment: Test A postemergence; format: in vivo, Amaranthus palmeri; settings: postemergence, 10 days
Procedure, shortened: as §1

[27] = system: foxtail, giant; experiment: Test A postemergence; format: in vivo, Setaria faberi; settings: postemergence, 10 days
Procedure, shortened: as §1

[28] = system: ragweed; experiment: Test A preemergence; format: in vivo, Ambrosia artemisiifolia
Procedure, shortened: as §1

[29] = 125 g ai/ha, visual injury after 10 days, 0 to 100 scale, 0 is no effect, 100 is complete control
[30] = 500 g ai/ha, 0 to 100 scale (0 no effect, 100 complete control), 10 days
[31] = 125 g ai/ha, 0 to 100 scale, 0 no effect, 100 complete control
[32] = 500 g ai/ha, visual injury, 0 to 100 scale (0 no effect, 100 complete control)

Cc1ccc(-n2cnc(C(C)C)n2)cc1C(=O)N1C[C@H](C)Oc2c(C)cccc21 [Compound 99]
95: Plant response rating, Sedge, Umbrella [10]
90: Plant response rating, Blackgrass [1, 30] | Plant response rating, Oat, Wild [2, 30] | Plant response rating, Ryegrass, Italian [3, 29] | Blackgrass plant response rating [8, 31] | Plant response rating, Blackgrass [8, 32] | Plant response rating, Kochia [9, 32] | Plant response rating, Ragweed [11, 32] | Plant response rating, Corn [18, 32] | Goosegrass plant response rating [19, 31] | Plant response rating, Oat, Wild [22, 32] | Plant response rating, Wheat [23, 32] | Pigweed, Palmer plant response rating [26, 31] | Foxtail, Giant plant response rating [27, 31] | Plant response rating, Foxtail, Giant [27, 32]
70: Plant response rating, Oat, Wild [2, 29] | Horseweed plant response rating [6, 31] | Corn plant response rating [18, 31] | Oat, Wild plant response rating [22, 31]
10: Plant response rating, Corn [15, 29] | Plant response rating, Rice [20]
50: Plant response rating, Corn [15, 30] | Ryegrass, Italian plant response rating [16, 31]
30: Plant response rating, Wheat [17, 29]
100: Plant response rating, Ryegrass, Italian [3, 30] | Plant response rating, Goosegrass [4, 29] | Plant response rating, Goosegrass [4, 30] | Galium plant response rating [5, 31] | Plant response rating, Galium [5, 32] | Plant response rating, Soybean [7, 30] | Plant response rating, Kochia [13, 29] | Plant response rating, Kochia [13, 30] | Plant response rating, Pigweed, Palmer [14, 29] | Plant response rating, Pigweed, Palmer [14, 30] | Plant response rating, Ryegrass, Italian [16, 32] | Plant response rating, Goosegrass [19, 32] | Soybean plant response rating [21, 31] | Plant response rating, Soybean [21, 32] | Plant response rating, Foxtail, Giant [24, 29] | Plant response rating, Foxtail, Giant [24, 30] | Plant response rating, Pigweed, Palmer [26, 32]
35: Plant response rating, Barnyardgrass [25]
80: Plant response rating, Blackgrass [1, 29] | Plant response rating, Horseweed [6, 32] | Plant response rating, Soybean [7, 29] | Kochia plant response rating [9, 31] | Plant response rating, Wheat [17, 30] | Wheat plant response rating [23, 31] | Plant response rating, Ragweed [28, 30]
40: Ragweed plant response rating [11, 31] | Plant response rating, Ducksalad [12] | Plant response rating, Ragweed [28, 29]
